The values below come from ChEMBL document CHEMBL1126746, “Sulfonylmethanesulfonamide inhibitors of carbonic anhydrase” (J Med Chem, 1993).

Structures are written as SMILES.

One series concerns the target Carbonic anhydrase 2 (Homo sapiens, UniProt P00918).
Series [1] is described as follows: Equilibrium dissociation constant was determined. In kind it is ADME.
Another series has as its target Carbonic anhydrase. Type of series: protein assay, Canis lupus familiaris.
Series [2] relates to Carbonic anhydrase (Oryctolagus cuniculus). The series can be described thus: Ex vivo inhibition of carbonic anhydrase in homogenate of rabbit iris-ciliary body; expressed as volume/minute of 0.025 N NaOH required to maintain pH of assay mixture at 0.25 mg.
Series [3] has the same test system. The series can be described thus: Inhibition of carbonic anhydrase activity in a homogenate of rabbit iris-ciliary body at a dose of 0.25 mg (ex vivo).
Series [4] has the same test system. Description: Inhibition of carbonic anhydrase activity in a homogenate of rabbit iris-ciliary body at a dose of 0.05 mg (ex vivo).
The nature of series [5]: Equilibrium dissociation constant of CA complex for enantiomer 2 of compound. Type of series: ADME.
Series [6] is described as follows: Equilibrium dissociation constant of CA complex for enantiomer 1 of compound. Type of series: ADME.
The subject of series [7] is Carbonic anhydrase (Oryctolagus cuniculus). The series can be described thus: Ex vivo inhibition of carbonic anhydrase in homogenate of rabbit iris-ciliary body; expressed as volume/minute of 0.025 N NaOH required to maintain pH of assay mixture at 0.05 mg.

Description for Carbonic anhydrase 2: In vitro inhibition of purified human erythrocyte carbonic anhydrase II
Description for physchem: Acid dissociation constant was determined

On to `CCCCCCCCS(=O)(=O)C(C)S(N)(=O)=O` (stereo not drawn), for which it took 2.5 µM to reach half-maximal inhibition against Carbonic anhydrase 2 (IC50). Moreover, the pKa – broadly, the pH at which an ionisable group is half protonated – in “physchem” stood at 8.9.

Turning to `NS(=O)(=O)CS(=O)(=O)CCc1ccccc1`, the concentration for half-maximal inhibition (IC50) (commonly the point on the concentration scale where inhibition reaches its midpoint) on Carbonic anhydrase 2 came to 0.1 µM. Besides, in “physchem”, the pKa came to 8.4.

With `COc1ccc2c(c1)S(=O)(=O)C(S(N)(=O)=O)C2` (stereo not drawn), 0.8 µM corresponded to half-maximal inhibition against Carbonic anhydrase 2 (IC50). This compound also registered a pKa in “physchem” of 8.8.

`CCCCCCCCS(=O)(=O)C(Cl)S(N)(=O)=O` (stereo not drawn): at Carbonic anhydrase 2, it took 0.012 µM to reach half-maximal inhibition (IC50). Also, the affinity in series [1], expressed as Kd, was 0.017 µM. In the series “physchem”, this compound came in with a pKa of 7.7.

On to `CCCCCCCCSCS(N)(=O)=O`, for which, at Carbonic anhydrase 2, the IC50 came out at 0.48 µM.

Consider `NS(=O)(=O)CSCCCc1ccccc1`, for which the IC50 against Carbonic anhydrase 2 turned out to be 1.2 µM. The compound also displayed a pKa in “physchem” of 9.4.

`NS(=O)(=O)CSc1ccc(O)cc1`: at Carbonic anhydrase 2, 2.9 µM corresponded to half-maximal inhibition (IC50). The compound also came in with a pKa in the series “physchem” of 10.1.

Consider `CCS(N)(=O)=O` [ETHANESULFONIC ACID AMIDE], for which the concentration for half-maximal inhibition (IC50) at Carbonic anhydrase stood at 1000 µM.

For `CCCCCCCCS(=O)(=O)CS(N)(=O)=O`, the midpoint of inhibition against Carbonic anhydrase 2, the IC50, lay at 0.022 µM. This compound gave a pKa in the series “physchem” of 9.4.

Compound `NS(=O)(=O)CS(=O)(=O)c1ccc(O)cc1` yielded a concentration for half-maximal inhibition (IC50) against Carbonic anhydrase 2 of 0.4 µM. In the series “physchem”, this compound showed a pKa of 9.1.

`CCCCCCCCS(=O)(=O)C(Cl)(Cl)S(N)(=O)=O`: at Carbonic anhydrase 2, the half-maximal inhibitory concentration (IC50) was 0.2 µM.

For the compound `NS(=O)(=O)CSCCc1ccccc1`, the IC50 at Carbonic anhydrase 2 was determined as 2 µM. The pKa in “physchem” amounted to 9.5.

Regarding `CCCCCCCCS(=O)(=O)C(F)S(N)(=O)=O` (stereo not drawn), the CA activity ((ml of NaOH) min-1) was 0.043 in [2] and 0.147 in [7]. This compound yielded a 50% inhibitory concentration (IC50) on Carbonic anhydrase 2 of 0.003 µM. Further, the inhibition (commonly the drop in the measured response relative to a control, in per cent) in series [3] was 91%; in series [4], 71%. The same compound returned a pKa in the series “physchem” of 7.5. The dissociation constant (Kd) (in general, the concentration at which binding is half-saturated) in series [5] is 0.00064 µM; in series [6], 0.00357 µM.

For the compound `COCCOCCOCS(=O)(=O)CS(N)(=O)=O`, at Carbonic anhydrase 2, 1.3 µM corresponded to half-maximal inhibition (IC50).

On Carbonic anhydrase 2, `NS(=O)(=O)CS(=O)(=O)CCCc1ccccc1` had an IC50 of 0.19 µM. In the series “physchem”, this compound registered a pKa of 8.4.
